“And” between values parts separate entries of the source, which are not always exact repeats. Equal entries are not always repeated.
Assays:
Assay in all cases: radiometric filter-binding kinase assay
[1] = target: MAP3K5 (human) (UniProt Q99683); conditions: compound 1.0 µM
[2] = target: TEK (human) (UniProt Q02763); conditions: compound 1.0 µM
[3] = target: CLK2 (human) (UniProt P49760); conditions: compound 1.0 µM
[4] = target: IGF1R (human) (UniProt P08069); conditions: compound 1.0 µM
[5] = target: DYRK1A (human) (UniProt Q13627); conditions: compound 1.0 µM
[6] = target: EPHA4 (human) (UniProt P54764); conditions: compound 1.0 µM
[7] = target: ZAP70 (human) (UniProt P43403); conditions: compound 1.0 µM
[8] = target: NTRK1 (human) (UniProt P04629); conditions: compound 1.0 µM
[9] = target: MAP3K1 (human) (UniProt Q13233); conditions: compound 1.0 µM
[10] = target: PDPK1 (human) (UniProt O15530); conditions: compound 1.0 µM
[11] = target: HIPK1 (human) (UniProt Q86Z02); conditions: compound 1.0 µM
[12] = target: DAPK1 (human) (UniProt P53355); conditions: compound 1.0 µM
[13] = target: STK16 (human) (UniProt O75716); conditions: compound 1.0 µM
[14] = target: MAPK13 (human) (UniProt O15264); conditions: compound 1.0 µM
[15] = target: PRKCG (human) (UniProt P05129); conditions: compound 1.0 µM
[16] = target: GCK (human) (UniProt Q12851); conditions: compound 1.0 µM
[17] = target: MARK4 (human) (UniProt Q96L34); conditions: compound 1.0 µM
[18] = tested on: PAK2 (human), Q13177 [T402E]; conditions: compound 1.0 µM
[19] = target: BRSK1 (human) (UniProt Q8TDC3); conditions: compound 1.0 µM
[20] = target: MARK2 (human) (UniProt Q7KZI7); conditions: compound 1.0 µM
[21] = target: RIPK2 (human) (UniProt O43353); conditions: compound 1.0 µM
[22] = target: PTK6 (human) (UniProt Q13882); conditions: compound 1.0 µM
[23] = target: EPHB3 (human) (UniProt P54753); conditions: compound 1.0 µM
[24] = target: STK33 (human) (UniProt Q9BYT3); conditions: compound 1.0 µM
[25] = target: MAP3K9 (human) (UniProt P80192); conditions: compound 1.0 µM
[26] = target: EPHB4 (human) (UniProt P54760); conditions: compound 1.0 µM
[27] = target: NUAK1 (human) (UniProt O60285); conditions: compound 1.0 µM
[28] = target: MAP3K11 (human) (UniProt Q16584); conditions: compound 1.0 µM
[29] = target: MAPK10 (human) (UniProt P53779); conditions: compound 1.0 µM
[30] = target: MAP2K2 (human) (UniProt P36507); conditions: compound 1.0 µM
[31] = target: FLT1 (human) (UniProt P17948); conditions: compound 1.0 µM
[32] = target: STK11 CAB39 STRADA (human) (UniProt Q9Y376+Q7RTN6+Q15831); conditions: compound 1.0 µM
[33] = target: MAP2K6 (human) (UniProt P52564); conditions: compound 1.0 µM
[34] = target: BTK (human) (UniProt Q06187); conditions: compound 1.0 µM
[35] = target: RPS6KA5 KD1 KD2 (human) (UniProt O75582)

Chain of MAP3K9 (human) (P80192 whole entry, looked up): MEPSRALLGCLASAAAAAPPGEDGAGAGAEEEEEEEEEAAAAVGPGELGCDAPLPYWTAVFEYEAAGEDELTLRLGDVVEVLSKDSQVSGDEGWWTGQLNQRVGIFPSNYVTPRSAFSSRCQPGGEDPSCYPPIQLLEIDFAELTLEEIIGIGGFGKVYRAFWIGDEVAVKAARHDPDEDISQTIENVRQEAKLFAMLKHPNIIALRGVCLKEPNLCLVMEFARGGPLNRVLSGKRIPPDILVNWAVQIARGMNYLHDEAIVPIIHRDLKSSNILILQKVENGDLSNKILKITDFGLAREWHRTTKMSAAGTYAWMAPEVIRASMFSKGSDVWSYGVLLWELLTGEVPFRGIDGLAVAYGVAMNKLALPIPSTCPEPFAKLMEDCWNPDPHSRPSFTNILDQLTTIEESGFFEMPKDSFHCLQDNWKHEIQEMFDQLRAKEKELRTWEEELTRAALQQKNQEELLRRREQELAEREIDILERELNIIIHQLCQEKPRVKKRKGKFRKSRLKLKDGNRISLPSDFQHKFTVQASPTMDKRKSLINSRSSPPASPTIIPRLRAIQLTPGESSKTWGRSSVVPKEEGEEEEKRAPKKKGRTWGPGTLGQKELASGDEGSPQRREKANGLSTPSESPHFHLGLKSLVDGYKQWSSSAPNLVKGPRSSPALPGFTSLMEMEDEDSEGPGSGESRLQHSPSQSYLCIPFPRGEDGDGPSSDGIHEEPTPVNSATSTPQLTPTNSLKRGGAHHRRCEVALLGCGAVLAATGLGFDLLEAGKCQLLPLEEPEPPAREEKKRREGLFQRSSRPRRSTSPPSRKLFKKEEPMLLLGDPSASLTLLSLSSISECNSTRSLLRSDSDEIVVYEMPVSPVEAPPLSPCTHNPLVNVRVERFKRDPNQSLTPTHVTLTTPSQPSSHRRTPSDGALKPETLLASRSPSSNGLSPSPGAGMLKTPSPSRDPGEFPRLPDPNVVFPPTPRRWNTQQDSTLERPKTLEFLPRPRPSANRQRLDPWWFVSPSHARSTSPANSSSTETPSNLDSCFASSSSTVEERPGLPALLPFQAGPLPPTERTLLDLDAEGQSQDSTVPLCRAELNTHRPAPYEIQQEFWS
Chain of MAP2K6 (human) (P52564 whole entry, looked up): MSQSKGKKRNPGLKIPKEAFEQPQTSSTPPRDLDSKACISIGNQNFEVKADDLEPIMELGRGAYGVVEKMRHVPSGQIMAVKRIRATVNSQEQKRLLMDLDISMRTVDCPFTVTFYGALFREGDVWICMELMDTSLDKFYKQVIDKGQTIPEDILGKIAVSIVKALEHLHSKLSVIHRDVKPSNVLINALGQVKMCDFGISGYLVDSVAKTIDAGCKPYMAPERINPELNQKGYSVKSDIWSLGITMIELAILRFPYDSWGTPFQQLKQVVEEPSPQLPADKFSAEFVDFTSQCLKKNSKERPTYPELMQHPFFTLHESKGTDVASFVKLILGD
Chain of EPHA4 (human) (P54764 whole entry, looked up): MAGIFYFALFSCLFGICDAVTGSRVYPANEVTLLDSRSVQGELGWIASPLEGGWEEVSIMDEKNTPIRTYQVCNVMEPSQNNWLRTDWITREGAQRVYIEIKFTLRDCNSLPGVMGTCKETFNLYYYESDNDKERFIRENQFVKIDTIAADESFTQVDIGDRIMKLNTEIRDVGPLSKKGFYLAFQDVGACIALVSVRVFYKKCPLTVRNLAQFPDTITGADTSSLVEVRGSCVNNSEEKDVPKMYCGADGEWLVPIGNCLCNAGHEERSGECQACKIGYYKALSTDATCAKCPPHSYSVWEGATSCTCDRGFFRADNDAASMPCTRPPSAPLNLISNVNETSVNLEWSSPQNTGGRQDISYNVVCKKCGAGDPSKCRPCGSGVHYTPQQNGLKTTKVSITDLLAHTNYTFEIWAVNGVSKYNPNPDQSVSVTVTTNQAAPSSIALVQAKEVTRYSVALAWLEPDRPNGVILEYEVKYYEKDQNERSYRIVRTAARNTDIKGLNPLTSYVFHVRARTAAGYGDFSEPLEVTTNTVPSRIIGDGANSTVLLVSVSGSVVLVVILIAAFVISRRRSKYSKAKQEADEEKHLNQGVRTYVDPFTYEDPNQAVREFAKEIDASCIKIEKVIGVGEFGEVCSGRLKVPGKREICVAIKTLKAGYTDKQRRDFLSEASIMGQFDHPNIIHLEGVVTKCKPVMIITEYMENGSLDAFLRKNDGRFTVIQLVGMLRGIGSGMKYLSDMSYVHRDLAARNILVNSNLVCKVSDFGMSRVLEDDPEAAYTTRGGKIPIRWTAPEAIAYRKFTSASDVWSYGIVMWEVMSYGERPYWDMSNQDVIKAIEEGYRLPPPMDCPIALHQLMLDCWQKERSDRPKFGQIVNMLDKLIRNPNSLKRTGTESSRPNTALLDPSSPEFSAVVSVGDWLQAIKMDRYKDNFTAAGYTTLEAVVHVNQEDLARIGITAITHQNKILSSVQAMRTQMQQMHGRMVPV
Chain of MAP3K11 (human) (Q16584 whole entry, looked up): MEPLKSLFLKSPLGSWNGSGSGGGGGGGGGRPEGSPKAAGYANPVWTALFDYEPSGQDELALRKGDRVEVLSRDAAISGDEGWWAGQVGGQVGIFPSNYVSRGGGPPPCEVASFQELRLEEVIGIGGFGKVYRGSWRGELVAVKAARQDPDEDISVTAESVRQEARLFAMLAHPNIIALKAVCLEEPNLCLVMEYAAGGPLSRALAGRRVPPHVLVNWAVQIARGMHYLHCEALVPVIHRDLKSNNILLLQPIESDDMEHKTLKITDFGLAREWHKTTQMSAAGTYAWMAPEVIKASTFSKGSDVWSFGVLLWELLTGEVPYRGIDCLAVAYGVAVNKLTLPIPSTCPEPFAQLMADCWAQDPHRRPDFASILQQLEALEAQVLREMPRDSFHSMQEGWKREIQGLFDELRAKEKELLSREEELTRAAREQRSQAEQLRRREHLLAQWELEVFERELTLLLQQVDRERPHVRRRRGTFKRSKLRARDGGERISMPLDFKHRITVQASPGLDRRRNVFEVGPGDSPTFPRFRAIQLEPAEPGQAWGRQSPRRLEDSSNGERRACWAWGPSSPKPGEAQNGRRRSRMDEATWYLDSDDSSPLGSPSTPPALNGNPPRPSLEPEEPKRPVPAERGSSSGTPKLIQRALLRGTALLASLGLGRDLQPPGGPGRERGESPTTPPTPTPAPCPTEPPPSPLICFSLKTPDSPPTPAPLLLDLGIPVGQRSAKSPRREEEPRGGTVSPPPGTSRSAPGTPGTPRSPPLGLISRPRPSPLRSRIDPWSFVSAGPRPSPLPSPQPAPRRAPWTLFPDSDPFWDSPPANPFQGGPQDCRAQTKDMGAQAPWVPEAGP
Chain of BRSK1 (human) (Q8TDC3 whole entry, looked up): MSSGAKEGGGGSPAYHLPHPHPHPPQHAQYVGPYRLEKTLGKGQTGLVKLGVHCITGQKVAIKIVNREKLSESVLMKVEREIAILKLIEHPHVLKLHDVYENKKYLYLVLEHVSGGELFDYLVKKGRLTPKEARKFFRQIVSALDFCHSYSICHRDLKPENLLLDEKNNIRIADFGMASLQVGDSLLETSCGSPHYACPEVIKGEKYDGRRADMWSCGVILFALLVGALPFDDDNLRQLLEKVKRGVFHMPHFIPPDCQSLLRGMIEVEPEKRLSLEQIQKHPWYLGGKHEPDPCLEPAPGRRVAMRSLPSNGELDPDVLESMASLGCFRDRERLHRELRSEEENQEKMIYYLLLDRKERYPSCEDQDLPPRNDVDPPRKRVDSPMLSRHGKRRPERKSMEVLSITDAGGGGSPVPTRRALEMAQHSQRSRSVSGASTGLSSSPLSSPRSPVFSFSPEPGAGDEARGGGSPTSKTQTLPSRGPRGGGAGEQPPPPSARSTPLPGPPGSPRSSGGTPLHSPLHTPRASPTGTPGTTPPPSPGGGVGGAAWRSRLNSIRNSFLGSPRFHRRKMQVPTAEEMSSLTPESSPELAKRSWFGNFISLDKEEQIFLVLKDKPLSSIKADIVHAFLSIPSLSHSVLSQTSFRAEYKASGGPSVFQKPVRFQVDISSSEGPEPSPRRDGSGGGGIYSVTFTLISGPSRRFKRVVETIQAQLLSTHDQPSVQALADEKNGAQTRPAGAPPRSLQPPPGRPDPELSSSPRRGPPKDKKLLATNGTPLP
Chain of CLK2 (human) (P49760 whole entry, looked up): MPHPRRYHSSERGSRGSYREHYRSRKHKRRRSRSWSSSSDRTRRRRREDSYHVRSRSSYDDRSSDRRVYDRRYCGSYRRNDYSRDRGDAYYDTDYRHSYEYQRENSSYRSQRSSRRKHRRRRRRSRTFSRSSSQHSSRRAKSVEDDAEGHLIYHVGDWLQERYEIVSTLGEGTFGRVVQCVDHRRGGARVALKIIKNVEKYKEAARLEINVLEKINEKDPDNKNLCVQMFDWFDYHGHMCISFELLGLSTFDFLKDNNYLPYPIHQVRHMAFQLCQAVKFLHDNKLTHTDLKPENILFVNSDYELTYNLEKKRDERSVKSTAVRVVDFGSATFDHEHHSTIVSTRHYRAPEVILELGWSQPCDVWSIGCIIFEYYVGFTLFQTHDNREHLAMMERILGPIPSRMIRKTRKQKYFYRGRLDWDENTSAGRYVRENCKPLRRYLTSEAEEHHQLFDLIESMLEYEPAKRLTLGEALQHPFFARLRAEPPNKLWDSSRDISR
Chain of PTK6 (human) (Q13882 whole entry, looked up): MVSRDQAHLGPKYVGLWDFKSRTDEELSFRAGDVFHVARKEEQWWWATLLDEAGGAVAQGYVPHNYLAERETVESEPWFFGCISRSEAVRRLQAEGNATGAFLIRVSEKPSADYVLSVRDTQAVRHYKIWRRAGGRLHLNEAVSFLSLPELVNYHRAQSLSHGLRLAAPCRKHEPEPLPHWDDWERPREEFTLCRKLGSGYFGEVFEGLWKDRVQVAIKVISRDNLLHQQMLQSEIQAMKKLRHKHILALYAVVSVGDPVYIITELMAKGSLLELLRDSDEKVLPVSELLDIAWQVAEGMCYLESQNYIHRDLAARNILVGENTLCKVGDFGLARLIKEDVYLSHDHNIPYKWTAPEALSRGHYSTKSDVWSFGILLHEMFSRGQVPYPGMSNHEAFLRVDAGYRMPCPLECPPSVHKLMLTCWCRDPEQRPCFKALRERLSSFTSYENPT

SMILES: COc1ccc2c(c1)[nH]c1c(C)nccc12
- residual activity [1]: 95%
- residual activity [2]: 112%
- residual activity [3]: 10%
- residual activity [4]: 93%
- residual activity [5]: 2%
- residual activity [6]: 97%
- residual activity [7]: 100%
- residual activity [8]: 104%
- residual activity [9]: 89%
- residual activity [10]: 99% and 115%
- residual activity [11]: 119%
- residual activity [12]: 95%
- residual activity [13]: 92%
- residual activity [14]: 88%
- residual activity [15]: 100%
- residual activity [16]: 68%
- residual activity [17]: 89%
- residual activity [18]: 89%
- residual activity [19]: 83%
- residual activity [20]: 80%
- residual activity [21]: 107%
- residual activity [22]: 112%
- residual activity [23]: 86%
- residual activity [24]: 97%
- residual activity [25]: 111%
- residual activity [26]: 101%
- residual activity [27]: 96%
- residual activity [28]: 105%
- residual activity [29]: 81%
- residual activity [30]: 99%
- residual activity [31]: 78%
- residual activity [32]: 94%
- residual activity [33]: 95%
- residual activity [34]: 69%

SMILES: Oc1ccc2c(c1)C(O)c1cc(O)ccc1-2
- residual activity ([35]; compound 20.0 µM): 85%

SMILES: Oc1ccc2c(c1)oc1c3ccccc3c(O)cc21
- residual activity [1]: 87%
- residual activity [2]: 112%
- residual activity [3]: 8%
- residual activity [4]: 78%
- residual activity [6]: 100%
- residual activity [7]: 90%
- residual activity [8]: 107%
- residual activity [9]: 67%
- residual activity [11]: 74%
- residual activity [12]: 31%
- residual activity [13]: 85%
- residual activity [14]: 95%
- residual activity [15]: 97%
- residual activity [16]: 65%
- residual activity [17]: 99%
- residual activity [18]: 87%
- residual activity [19]: 73%
- residual activity [20]: 87%
- residual activity [21]: 107%
- residual activity [22]: 103%
- residual activity ([35]; compound 1.0 µM): 105%
- residual activity [23]: 97%
- residual activity [24]: 85%
- residual activity [25]: 87%
- residual activity [26]: 103%
- residual activity [27]: 88%
- residual activity [28]: 76%
- residual activity [29]: 105%
- residual activity [30]: 102%
- residual activity [31]: 40%
- residual activity [32]: 71%
- residual activity [33]: 92%
- residual activity [34]: 60%

From the kinase profiling compilation of Christmann-Franck et al. (2016)
